Measured values from US20070280915A1, “Combination Therapies Employing A Composition Comprising A Hmg Coa Reductase Inhibitor And A Vitamin B6 Related Compound” (priority 2003, published 2007).

Legend:
CYP2C9 = target: T1, CYP2C9 (Homo sapiens, UniProt P11712); test: CYP2C9 inhibition assay (substrate MFC); format: in vitro ADME; details: 0.0169 to […] tested, na = concentration-dependent inhibition not observed
T1 construct: purchased Gentest Corp; host or cells: insect cells (baculovirus)
Experimental: […]. […] All determinations were performed in duplicate.

CYP2A6 = target: T2, CYP2A6 (Homo sapiens, UniProt P11509); test: CYP2A6 inhibition assay (substrate coumarin); details: 0.0169 to […] tested, na = concentration-dependent inhibition not observed
T2 sequence (P11509 1-494): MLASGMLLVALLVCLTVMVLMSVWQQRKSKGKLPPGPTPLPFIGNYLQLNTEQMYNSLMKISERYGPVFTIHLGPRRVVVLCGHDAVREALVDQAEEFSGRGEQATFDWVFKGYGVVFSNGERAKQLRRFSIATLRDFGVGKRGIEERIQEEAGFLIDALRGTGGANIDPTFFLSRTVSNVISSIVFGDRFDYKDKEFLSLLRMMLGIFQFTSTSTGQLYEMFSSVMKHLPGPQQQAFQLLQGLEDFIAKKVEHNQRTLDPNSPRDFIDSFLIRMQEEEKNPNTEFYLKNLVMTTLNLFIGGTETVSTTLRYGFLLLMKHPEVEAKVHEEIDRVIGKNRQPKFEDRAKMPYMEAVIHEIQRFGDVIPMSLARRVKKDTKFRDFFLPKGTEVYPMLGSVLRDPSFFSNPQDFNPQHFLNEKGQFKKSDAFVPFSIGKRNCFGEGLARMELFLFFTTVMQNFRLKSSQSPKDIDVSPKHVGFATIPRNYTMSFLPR
Source text: The CYP inhibition assays used microsomes (Supersomes®, Gentest Corp., Woburn, Mass.) prepared from insect cells, each expressing an individual CYP subtype (CYP1A2, CYP2A6, CYP2B6, CYP2C8, CYP2C9, CYP2C19, CYP2D6, CYP2E1 or CYP3A4) expressed from the corresponding human CYP cDNA using a baculovirus expression vector. The microsomes also incorporated supplemental cDNA-expressed human reductase and/or cytochrome b5, as these enzymes stimulate the activity of the CYPs, allowing for a reduction in the amount of enzyme required per reaction (Gentest Corp.). The assays monitored, via fluorescence detection, the formation of a fluorescent metabolite following incubation of the microsomes with a specific CYP substrate. […] Reactions (0.2 mL) were performed in 96-well microtitre plates at 37° C. in the presence of an NADPH regenerating system [NADP+, glucose-6-phosphate (G6P), glucose-6-phosphate dehydrogenase (G6PDH)] and MgCl2. […] All determinations were performed in duplicate. The reagent solutions used for all of the CYP subtype assays, except CYP2C19 and CYP3A4, were prepared by MBDI. For CYP2C19 and CYP3A4, complete reagent kits purchased from Gentest Corp. (CYP2C19/CEC: Cat. No. HTS-4000, Lot No. 1; CYP3A4/BFC: Cat. No. HTS-1000, Lot No. 1) were used to perform the assays.
Eight inhibitor and test compound concentrations were tested using 3-fold serial dilutions. The microtitre plates containing 0.1 mL/well of the latter mixture were pre-warmed to 37° C. in an incubator. […] The amount of metabolic product formed was quantified by fluorescence detection in a fluorescence plate reader utilizing excitation and emission filters that had been optimized for the detection of each metabolite.
Data Analysis—The mean of the duplicate fluorescent signals in the presence and absence (vehicle control) of each compound was calculated and corrected for the background noise. Percent inhibition was calculated as the difference in the corrected fluorescent signals in the absence and presence of the compound, divided by the corrected fluorescent signal in the absence of compound, multiplied by 100%.

T1 sequence (P11712 whole entry): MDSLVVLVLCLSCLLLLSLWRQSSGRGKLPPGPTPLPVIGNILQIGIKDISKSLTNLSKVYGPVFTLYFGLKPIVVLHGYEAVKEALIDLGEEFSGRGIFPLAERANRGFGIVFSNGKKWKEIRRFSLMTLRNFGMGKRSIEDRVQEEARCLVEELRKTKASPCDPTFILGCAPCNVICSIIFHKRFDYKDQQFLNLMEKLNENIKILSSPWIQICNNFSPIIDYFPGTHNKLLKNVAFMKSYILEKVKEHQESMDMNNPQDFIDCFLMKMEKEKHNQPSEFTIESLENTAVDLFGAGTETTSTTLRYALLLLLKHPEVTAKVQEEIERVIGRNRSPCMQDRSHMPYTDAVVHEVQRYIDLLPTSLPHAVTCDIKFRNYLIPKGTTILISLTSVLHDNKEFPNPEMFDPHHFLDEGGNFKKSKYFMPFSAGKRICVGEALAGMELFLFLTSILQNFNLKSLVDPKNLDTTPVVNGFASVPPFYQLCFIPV

Cc1ncc(COP(=O)(O)O)c(C=O)c1O [P5P, pyridoxal-5-phosphate]
Pyridoxal 5′-phosphate IC50 (CYP2C9): did not inhibit
Pyridoxal 5′-phosphate IC50 (CYP2A6): did not inhibit
